Laboratory results published in PMC9744210, “Discovery of the SHP2 allosteric inhibitor 2-((3R,4R)-4-amino-3-methyl-2-oxa-8-azaspiro[4.5]decan-8-yl)-5-(2,3-dichlorophenyl)-3-methylpyrrolo[2,1-f][1,2,4] triazin-4(3H)-one” (Journal of Enzyme Inhibition and Medicinal Chemistry, 2022).
pIC50: −log10 of the molar value.

Target: T1, SHP2 (Homo sapiens, UniProt Q06124)
T1 construct: 6xHis (N, cleaved yes); TEV cleavage site (N, cleaved yes); made in house; host or cells: E. coli BL21 (DE3)
T1 sequence (Q06124 1-525): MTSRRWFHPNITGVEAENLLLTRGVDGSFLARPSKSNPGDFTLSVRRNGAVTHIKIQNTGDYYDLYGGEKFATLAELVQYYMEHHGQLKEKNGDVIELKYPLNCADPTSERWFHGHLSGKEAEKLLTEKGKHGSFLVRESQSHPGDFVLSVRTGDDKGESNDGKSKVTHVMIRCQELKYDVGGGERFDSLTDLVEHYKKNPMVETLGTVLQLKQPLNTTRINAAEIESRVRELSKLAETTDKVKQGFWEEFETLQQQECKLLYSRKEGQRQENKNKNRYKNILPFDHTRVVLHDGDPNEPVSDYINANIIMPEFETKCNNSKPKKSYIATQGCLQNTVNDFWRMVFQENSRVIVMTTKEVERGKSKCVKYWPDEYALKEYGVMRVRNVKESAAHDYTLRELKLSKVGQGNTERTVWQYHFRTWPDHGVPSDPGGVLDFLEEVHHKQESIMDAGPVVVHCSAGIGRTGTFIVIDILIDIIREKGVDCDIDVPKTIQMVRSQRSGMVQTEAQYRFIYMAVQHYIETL
Test: SHP2 phosphatase activity inhibition, DiFMUP prompt fluorescence assay
Format: biochemical
Conditions: 0.5 nM SHP2 activated with 0.125 µM bis-tyrosyl-phosphorylated peptide; substrate DiFMUP 200 μM; room temperature; read-out: Inhibitory activity IC50
Experimental: The measurement of the catalytic activity of SHP2 is using the surrogate substrate 6,8-difluoro-4-methylumbelliferyl phosphate (DiFMUP) in a prompt fluorescence assay format.[14]^,[22]^,[23] In special, the phosphatase reaction was performed at room temperature in a 384-well black plate (Corning) with a total volume of 20 μL. The assay buffer contained 60 mM HEPES, pH7.2, 75 mM NaCl, 75 mM KCl, 1 mM EDTA, 5 mM DTT, and 0.05% Triton X-100.
After 60 min incubation at room temperature, the surrogate substrate DiFMUP (Thermo, Cat: D6567, 200 μM) was added to the catalytic reaction. After 30 min incubation at room temperature, the fluorescence signal was measured at the excitation and emission wavelengths of 340 nm and 450 nm respectively with a plate reader (Tecan Spark). The curves of the inhibitor dose–response were analysed using normalised IC50 regression curve fitting with control-based normalisation.

Row | SMILES | pIC50
1 | Cn1c(N2CCC(C)(CN)CC2)nn2ccc(-c3cccc(Cl)c3Cl)c2c1=O [PB17-036-01] | 6.19
2 | C[C@H]1OCC2(CCN(c3nn4ccc(-c5cccc(Cl)c5Cl)c4c(=O)n3C)CC2)[C@H]1N [PB17-026-01, 2-((3R,4R)-4-amino-3-methyl-2-oxa-8-azaspiro[4.5]decan-8-yl)-5–(2,3-dichlorophenyl)-3-methylpyrrolo[2,1-f][1,2,4]triazin-4(3H)-one] | 7.41
3 | C[C@H]1OCC2(CCN(c3nn4cnc(-c5cccc(Cl)c5Cl)c4c(=O)n3C)CC2)[C@H]1N [PB17-021-01] | 6.98
4 | C[C@H]1OCC2(CCN(c3nn4ccc(-c5ccncc5)c4c(=O)n3C)CC2)[C@H]1N [PB17-035-01] | 6.77
